Laboratory results taken from patent publication US9549912B2, “Methods for treating atrial fibrillation” (Armetheon, Inc., priority 2009, dated 2017).
Values joined by “and” are separate entries in the source; they are usually repeats but may differ in a detail not shown here. Equal entries are not always repeated. “Also recorded” adds a separate entry of the source.

Tests used:
[1] = target: cytochrome P450 2C9 (CYP2C9) (Homo sapiens, UniProt P11712); experiment: CYP2C9 inhibition; format: in vitro ADME
cytochrome P450 2C9 (CYP2C9), sequence (P11712 whole entry): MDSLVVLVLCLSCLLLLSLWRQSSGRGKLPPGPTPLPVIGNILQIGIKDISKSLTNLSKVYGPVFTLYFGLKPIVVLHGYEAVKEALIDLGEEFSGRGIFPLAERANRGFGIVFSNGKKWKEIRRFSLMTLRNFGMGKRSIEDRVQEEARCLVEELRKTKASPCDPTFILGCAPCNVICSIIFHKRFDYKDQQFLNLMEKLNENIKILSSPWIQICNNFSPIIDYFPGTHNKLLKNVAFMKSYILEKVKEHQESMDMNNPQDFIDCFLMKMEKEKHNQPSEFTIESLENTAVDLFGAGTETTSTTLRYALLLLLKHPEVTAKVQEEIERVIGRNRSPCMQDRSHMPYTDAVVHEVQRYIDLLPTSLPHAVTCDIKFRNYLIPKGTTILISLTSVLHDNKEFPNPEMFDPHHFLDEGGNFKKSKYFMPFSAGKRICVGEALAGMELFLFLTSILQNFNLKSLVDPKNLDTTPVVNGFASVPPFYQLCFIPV

[2] = Metabolism and elimination features of budiodarone
[3] = Electrophysiological activity in animals: atrial refractoriness, metabolite activity; format: in vivo; details: animals
[4] = tested on: subjects with paroxysmal atrial fibrillation who had implanted pacemakers; experiment: Proof of concept study of ATI-2042 in PAF patients with pacemakers: AF burden and AF episodes (Example 1); format: in vivo, human
Description: Epub 2009 Jan. 26). This study was a proof of concept design seeking preliminary information on the pharmacodynamic effects, safety, and tolerability of the investigational drug ATI-2042 at a variety of doses, in patients with PAF. Patients with advanced DDDRP pacemakers were selected because of the pacemaker's sophisticated diagnostics and the ability to record continuously and log asymptomatic as well as symptomatic episodes. Only post-menopausal or surgically sterile females with a significant PAF burden and pacemakers were included in this study. The pacemakers had to have been in situ for at least 1 month prior to the study and have appropriate arrhythmia diagnostics. In this study, Vitatron pacemakers, models Selection 9000 or T70 pacemakers, were used. […] Although this finding was explored further, it was prudent to commence clinical testing in a population not at risk for this effect. […] The patients underwent screening assessments to assess suitability for the study and to obtain a baseline medical history and examination. The value of this cohort was that the pacemaker was not inserted for bradycardia but for the treatment of AF using various prevention pacing and rate control techniques. The inclusion criteria were as follows: age 18-85 years; […] The initial ATI-2042 dosage for all subjects was 200 mg orally bid, and it was then increased by 200 mg bid for each subsequent study period. Patients received 200 mg bid of ATI-2042 during period 2, 400 mg bid during period 3, 600 mg bid during period 4 and 800 mg bid during period 5, and no drug was administered during baseline and washout periods. “Selection 9000” and “T70” pacemakers (Vitatron, […], The Netherlands) are dual-chamber pacemakers with sophisticated and similar algorithms for AF detection and prevention. Atrial fibrillation detection is based on atrial rate; atrial tachyarrhythmias are detected when the median atrial cycle length is less than that programmed for AT or AF detection. In all patients, atrial fibrillation was detected if the atrial rate was >200 bpm for six consecutive beats, and its end logged if the atrial rate dropped below 200 bpm for 10 beats. […] Pacemaker anti-arrhythmic algorithms were turned off prior to entry into the baseline period and remained turned off until after washout. […] The primary outcome measure, AFB, was defined as the duration of time the subject's cardiac rhythm was AF divided by the total time recorded for that study period, expressed as percent. The total duration of time that the rhythm was AF is a function of the number of PAF episodes and the duration of each episode. Therefore, a reduction in AFB can occur through reduction in either or both of these variables. Atrial fibrillation burden was compared with baseline during the treatment periods. Secondary outcome measures were the number of AF episodes, the safety of ATI-2042, and the incidence and severity of adverse events (AEs). […] Atrial fibrillation burden is given as the percentage of total storage duration. The sample size for this study was selected empirically. All patients who received any amount of study medication were included in the efficacy and safety analysis. Efficacy variables for the study group are described as mean and standard deviation for each study period. Due to the small number of subjects, comparisons of periods 2-6 with baseline were made using estimates from a mixed-effects regression model.

[5] = Safety, ECG and thyroid function (Example 1); format: in vivo, human
Method: Patients were then monitored for at least 3 h continuously post-dose; this included telemetry, vital signs, and oxygen saturations. Electrocardiograms were taken, and the pacemaker data were downloaded prior to drug administration on day 8 and day 14 of each study period.
Criteria for drug discontinuation included a fall in systolic blood pressure (BP) to <90 mmHg systolic, an increase in BP>200 mmHg, intolerable side-effects, a change in rhythm that in the opinion of the investigator constituted a risk to safety, or a QRS increase >50%. Where possible, ECGs of intrinsic rhythm rather than ventricular-paced rhythm were obtained, as paced complexes can be difficult to interpret for QT prolongation. An increase in QT interval >470 ms for intrinsic and >550 ms for paced beats or an increase of 30% was considered significant.
Electrocardiogram parameters (ventricular HR, PR, QRS, QT, QTc interval) were summarized by baseline, dosing period, and washout using descriptive statistics. Changes from baseline in ECG values at day 8 of dosing and day 14 of washout were also summarized. Baseline values of ECG parameters are defined as the mean of three values recorded prior to the first dose of ATI-2042.

[6] = Safety and tolerability (Example 2); format: in vivo, human
Description: Safety: treatment-emergent adverse event (TEAE) type, severity, and incidence; clinical laboratory assessments, including thyroid function and testicular function (males); coagulation tests; vital signs; physical examinations; ECGs; eye examinations; chest X-rays; and pulmonary function tests.
Statistical methods for safety: Adverse events (AEs) were summarized by system organ class and preferred term. Laboratory parameters and vital signs were summarized by descriptive statistics and shift tables were also created for laboratory parameters. The percent of patients with physical examination findings that changed over the study, with ECG abnormalities by visit, and with corneal deposits were summarized. Chest X-rays and pulmonary function test results were provided in listings.

In the case of “(S)-sec-butyl 2-(3-(4-(2-(diethylamino)ethoxy)-3,5-diiodobenzoyl)benzofuran-2-yl)acetate [ATI-2042]”, the CYP2C9 inhibition [1] is reported as “inhibitor; also recorded: inhibit CYP2C9”, the metabolism [2] is reported as “primarily metabolized by esterases” and the pharmacokinetic features [2] is reported as “short half-life, rapid onset and offset, small volume of distribution, and cytochrome P450-independent elimination”. For the same substance, the “left and right atrial refractoriness” value [3] was “increased left and right atrial refractoriness comparable with amiodarone”, the “mean AFB (SD)” value ([4]; 200 mg bid (p2), baseline 20.3+14.6%) was 5.2+4.2% and the “mean AFB (SD)” value ([4]; 400 mg bid (p3)) was 5.2+5.2%. The “mean AFB (SD)” value ([4]; 600 mg bid (p4)) was 2.8+3.4%, the “mean AFB (SD)” value ([4]; 800 mg bid (p5)) was 1.5 ± 0.5% and the “effect on AFB in refractory PAF patients” value ([4]; all doses) was “significantly effective in reducing AFB at all doses”. The “decrease in AFB” value ([4]; all doses (200-800 mg bid)) was “at least 70%”, the “number of AF episodes” value ([4]; on drug, remained elevated in washout) was “increased initially” and the “relative reduction (RR) in AFB from baseline” value (from here on “relative reduction (RR) in AFB”) ([4]; p2, 200 mg bid) was 71.2 ± 31.3%. The “mean episode duration (SD)” value ([4]; p2, 200 mg bid, baseline 4.8+5.2) was 1.7+2.5 h, the “mean episode duration (SD)” value ([4]; p3, 400 mg bid) was 0.6+0.7 h and the “relative reduction (RR) in AFB” value ([4]; p3, 400 mg bid) was 71.7 ± 20.6%. The “mean episode duration (SD)” value ([4]; p4, 600 mg bid) was 0.1+0.2 h, the “relative reduction (RR) in AFB” value ([4]; p4, 600 mg bid) was 79.9 ± 26.4% and the “mean episode duration (SD)” value ([4]; p5, 800 mg bid) was 0.5+0.7 h. The “relative reduction (RR) in AFB” value ([4]; p5, 800 mg bid) was 86.8 ± 9.8%, the “mean episode duration (SD)” value ([4]; washout) was 2.4+3.0 h and the “mean AFB (SD)” value ([4]; washout (p6), no drug) was 11.7+14.0%. For the same substance, the “PR interval reduction from baseline” value ([5]; 200 mg bid) was 16.6+23.9%, the “PR interval reduction from baseline” value ([5]; 400 mg bid) was 11.4+22.6% and the “change in QTc from baseline, one patient” value ([5]; 400 mg bid, patient with AV node ablation, permanently paced) was 30 to 60 ms. The “change in paced QTc from baseline, one patient” value ([5]; 400 mg bid, same patient) was 15%, the “PR interval reduction from baseline” value ([5]; 600 mg bid) was 27.0+32.1% and the “PR interval reduction from baseline” value ([5]; 800 mg bid) was 35.1 ± 30.9%. For the same substance, the tolerability ([5]; 200-800 mg bid) was “generally well tolerated”, the “change from baseline QT or QTc with dosing” value ([5]; all patients, paced or not) was “No patient exhibited >30% change” and the “changes in HR, QRS, QT, or QTc” value ([5]; between baseline and dosing or washout) was “no significant changes”. For the same substance, the “proarrhythmia, clinical hypothyroidism, hyperthyroidism” value ([5]; in vivo) was “no cases of proarrhythmia, clinical hypothyroidism, or hyperthyroidism”, the “serious AEs” value ([5]; in vivo) was “no serious AEs related to study drug” and the “thyroid-stimulating hormone level reached after increase, individual patients” value ([5]; three patients, from 2.53, 3.51 and 0.68, normal range 0.27-4.2) was 4.82 mU/L and 9.49 mU/L and 16.12 mU/L. For the same substance, the “PR interval reduction from baseline” value ([5]; washout) was 30.7 ± 24.3%, the tolerability ([6]; 200, 400, 600 mg BID, up to 12 weeks) was “well tolerated” and the creatinine ([6]; BUN unchanged) was “reversible elevation”. For the same substance, the ALT ([6]; appeared dose related) was “mild, reversible increase”, the “corneal deposits (slit-lamp examination)” value ([6]; end of treatment period) was “No patient treated with ATI-2042 developed corneal deposits” and the “SAEs possibly related to drug” value ([6]; hematuria and high INR) was “Only one SAE was possibly related”. For the same substance, the “amiodarone-like end-organ toxicity (pulmonary fibrosis, corneal deposits, neuropathy, photosensitivity)” value ([6]; in vivo) was “No evidence of amiodarone-like end-organ toxicity was seen”, the thyroid function changes ([6]; in vivo) was “mild and reversible” and the “most frequent TEAEs” value ([6]; patients on concomitant warfarin) was “changes in INR values”.
